Data taken from patent US10047051B2, “Substituted pyridines and method of use” (AbbVie S.á{acute over (.)}r.l., priority 2015, dated 2018).

Legend:
Format in all cases: cell-based
CFTR ΔF508 = biological target: T1, CFTR ΔF508 (Homo sapiens, UniProt P13569, DEL508-508); test: TECC assay, primary bronchial epithelial cells, CFTR ΔF508; conditions: primary bronchial epithelial cells of CF patients homozygous for CFTR ΔF508, treated with 3 μM VX809, increase in Isc after forskolin
T1 construct: host or cells: primary human bronchial epithelial cells from CF patients homozygous for ΔF508, pre-treated with VX809
T1 sequence (P13569 with tags, fused parts or gaps DEL508-508): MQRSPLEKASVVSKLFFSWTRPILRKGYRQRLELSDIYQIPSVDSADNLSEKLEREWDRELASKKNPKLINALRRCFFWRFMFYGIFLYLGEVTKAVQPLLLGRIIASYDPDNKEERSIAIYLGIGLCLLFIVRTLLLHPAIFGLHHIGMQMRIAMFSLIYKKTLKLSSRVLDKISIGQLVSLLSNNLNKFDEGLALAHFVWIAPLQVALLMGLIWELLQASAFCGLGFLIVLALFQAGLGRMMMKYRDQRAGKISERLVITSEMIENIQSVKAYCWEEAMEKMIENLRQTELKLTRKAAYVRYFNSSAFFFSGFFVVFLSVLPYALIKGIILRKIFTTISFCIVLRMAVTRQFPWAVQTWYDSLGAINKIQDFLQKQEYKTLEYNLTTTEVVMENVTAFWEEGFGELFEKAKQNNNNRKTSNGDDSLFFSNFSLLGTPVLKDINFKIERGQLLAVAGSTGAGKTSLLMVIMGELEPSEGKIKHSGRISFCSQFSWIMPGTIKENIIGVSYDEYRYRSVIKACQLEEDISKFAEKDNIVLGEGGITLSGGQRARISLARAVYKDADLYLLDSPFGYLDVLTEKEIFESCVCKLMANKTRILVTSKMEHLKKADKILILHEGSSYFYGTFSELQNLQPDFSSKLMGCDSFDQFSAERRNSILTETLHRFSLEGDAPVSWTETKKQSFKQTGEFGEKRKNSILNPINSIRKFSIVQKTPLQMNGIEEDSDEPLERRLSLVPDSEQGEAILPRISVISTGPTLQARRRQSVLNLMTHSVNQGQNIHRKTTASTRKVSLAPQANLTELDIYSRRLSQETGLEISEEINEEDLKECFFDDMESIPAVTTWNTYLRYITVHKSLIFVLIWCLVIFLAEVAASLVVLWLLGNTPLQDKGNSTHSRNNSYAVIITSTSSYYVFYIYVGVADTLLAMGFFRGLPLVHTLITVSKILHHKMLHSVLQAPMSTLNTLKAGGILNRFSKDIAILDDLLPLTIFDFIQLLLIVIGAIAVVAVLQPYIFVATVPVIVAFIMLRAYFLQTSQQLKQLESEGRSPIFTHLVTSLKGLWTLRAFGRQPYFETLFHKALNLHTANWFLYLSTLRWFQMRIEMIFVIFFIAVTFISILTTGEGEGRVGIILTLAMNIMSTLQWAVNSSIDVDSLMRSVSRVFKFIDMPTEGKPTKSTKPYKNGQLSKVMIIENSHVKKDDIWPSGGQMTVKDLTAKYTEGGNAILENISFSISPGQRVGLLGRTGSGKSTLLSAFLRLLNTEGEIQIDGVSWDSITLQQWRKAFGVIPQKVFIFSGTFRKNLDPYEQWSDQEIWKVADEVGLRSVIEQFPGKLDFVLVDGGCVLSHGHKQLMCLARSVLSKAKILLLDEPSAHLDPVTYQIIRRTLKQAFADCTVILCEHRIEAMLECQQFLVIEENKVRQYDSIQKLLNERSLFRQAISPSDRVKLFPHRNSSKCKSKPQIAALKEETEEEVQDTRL
Protocol: The TECC (Tranepithelial Clamp Circuit, EP-design) assay measures the functionality of the cystic fibrosis Transmembrane Conductance regulator (CFTR) by measuring the short circuit current (Isc) generated over the basolateral and apical membrane of lung epithelial cells. In TECC the transepithelial potential PD and transepithelial resistance (Rt) are measured in an open circuit and transformed to Isc using Ohm's law. 24 Wells can be measured simultaneously allowing a higher throughput compared to Ussing chambers.
For this purpose, bronchial epithelial cells isolated from CF patients homozygous for the CFTR ΔF508 mutation (hAEC-CF, Epithelix) are plated on type IV collagen-coated Transwell® supports (Costar). Human airway epithelia are generated by provision of an air-liquid interface for 21 days to form well-differentiated polarized cultures that resemble in vivo pseudo-stratified ciliated epithelium (Fulcher, M. L., Gabriel, S., Burns, K. A., Yankaskas, J. R., Randell, S. H., 2005. Well-differentiated human airway epithelial cell cultures. Methods Mol. Med. 107, 183-206). In the case of the homozygous ΔF508 CFTR samples, the differentiated cells are treated with 3 μM VX809 (2626 South Loop West, Suite 225, Houston, Tex. 77054 USA, Cat n# S1565) to allow sufficient expression of properly folded CFTR protein on the membrane (48 hours basolateral treatment and 24 hours apical treatment), prior to electrophysiological recordings. For heterozygous G551D/ΔF508, differentiated cells are used as such for the recordings.
Information on the compounds can be retrieved on the homozygous ΔF508 CFTR samples looking at increased CFTR activity when compounds are added in an acute mode or in a chronic mode. On G551D/ΔF508 CFTR heterozygous samples compounds are added in an acute mode to the differentiated cells.
For the acute mode, for electrophysiological recording, the human airway epithelia are mounted in the TECC heating plate for electrophysiological measurement and kept at 37° C. The epithelia are bathed in a NaCl-Ringer solution (120 mM NaCl, 25 mM NaHCO3, 1.2 mM CaCl2, 1.2 mM MgCl2, 0.8 mM KH2PO4, 0.8 mM K2HPO4, pH 7.4, 5 mM glucose) on both the basolateral and apical sides. Apical amiloride is used to inhibit the endogenous ENaC currents while forkolin is applied on both apical and basolateral side to stimulate CFTR. After forskolin triggering, compounds are added on both sides to test their potential for increasing CFTR gating. Measurements are done during a 20 minute timeframe with recordings every 2 minutes. The increase in Isc is used as a measure for the increased CFTR activity, EC50 values can be generated by measuring impact of different concentrations of compound on Isc on primary cells, for this purpose each transwell is treated with a different compound concentration. Inh-172, an inhibitor specific for CFTR, is used to test the specificity of the tested compounds.
For the chronic mode, the differentiated cells are treated with 3 μM VX809 (2626 South Loop West, Suite 225, Houston, Tex. 77054 USA, Cat n# S1565) and potentiator compounds at different concentrations (48 hours basolateral treatment and 24 hours apical treatment), prior to electrophysiological recordings. For electrophysiological recording, the human airway epithelia are mounted in the TECC heating plate for electrophysiological measurement and kept at 37° C. The epithelia are bathed in a NaCl-Ringer solution (120 mM NaCl, 25 mM NaHCO3, 1.2 mM CaCl2, 1.2 mM MgCl2, 0.8 mM KH2PO4, 0.8 mM K2HPO4, pH 7.4, 5 mM glucose) on both the basolateral and apical sides. Apical amiloride is used to inhibit the endogenous ENaC currents while forkolin is applied on both apical and basolateral side to stimulate CFTR. Measurements are done during a 20 minute timeframe with recordings every 2 minutes. […]

CFTR-G1349D = biological target: T2, CFTR-G1349D (Homo sapiens, UniProt P13569, G1349D); test: YFP-halide influx assay for the CFTR-G1349D
T2 construct: expressed in transfected cells
T2 sequence (P13569 whole entry G1349D): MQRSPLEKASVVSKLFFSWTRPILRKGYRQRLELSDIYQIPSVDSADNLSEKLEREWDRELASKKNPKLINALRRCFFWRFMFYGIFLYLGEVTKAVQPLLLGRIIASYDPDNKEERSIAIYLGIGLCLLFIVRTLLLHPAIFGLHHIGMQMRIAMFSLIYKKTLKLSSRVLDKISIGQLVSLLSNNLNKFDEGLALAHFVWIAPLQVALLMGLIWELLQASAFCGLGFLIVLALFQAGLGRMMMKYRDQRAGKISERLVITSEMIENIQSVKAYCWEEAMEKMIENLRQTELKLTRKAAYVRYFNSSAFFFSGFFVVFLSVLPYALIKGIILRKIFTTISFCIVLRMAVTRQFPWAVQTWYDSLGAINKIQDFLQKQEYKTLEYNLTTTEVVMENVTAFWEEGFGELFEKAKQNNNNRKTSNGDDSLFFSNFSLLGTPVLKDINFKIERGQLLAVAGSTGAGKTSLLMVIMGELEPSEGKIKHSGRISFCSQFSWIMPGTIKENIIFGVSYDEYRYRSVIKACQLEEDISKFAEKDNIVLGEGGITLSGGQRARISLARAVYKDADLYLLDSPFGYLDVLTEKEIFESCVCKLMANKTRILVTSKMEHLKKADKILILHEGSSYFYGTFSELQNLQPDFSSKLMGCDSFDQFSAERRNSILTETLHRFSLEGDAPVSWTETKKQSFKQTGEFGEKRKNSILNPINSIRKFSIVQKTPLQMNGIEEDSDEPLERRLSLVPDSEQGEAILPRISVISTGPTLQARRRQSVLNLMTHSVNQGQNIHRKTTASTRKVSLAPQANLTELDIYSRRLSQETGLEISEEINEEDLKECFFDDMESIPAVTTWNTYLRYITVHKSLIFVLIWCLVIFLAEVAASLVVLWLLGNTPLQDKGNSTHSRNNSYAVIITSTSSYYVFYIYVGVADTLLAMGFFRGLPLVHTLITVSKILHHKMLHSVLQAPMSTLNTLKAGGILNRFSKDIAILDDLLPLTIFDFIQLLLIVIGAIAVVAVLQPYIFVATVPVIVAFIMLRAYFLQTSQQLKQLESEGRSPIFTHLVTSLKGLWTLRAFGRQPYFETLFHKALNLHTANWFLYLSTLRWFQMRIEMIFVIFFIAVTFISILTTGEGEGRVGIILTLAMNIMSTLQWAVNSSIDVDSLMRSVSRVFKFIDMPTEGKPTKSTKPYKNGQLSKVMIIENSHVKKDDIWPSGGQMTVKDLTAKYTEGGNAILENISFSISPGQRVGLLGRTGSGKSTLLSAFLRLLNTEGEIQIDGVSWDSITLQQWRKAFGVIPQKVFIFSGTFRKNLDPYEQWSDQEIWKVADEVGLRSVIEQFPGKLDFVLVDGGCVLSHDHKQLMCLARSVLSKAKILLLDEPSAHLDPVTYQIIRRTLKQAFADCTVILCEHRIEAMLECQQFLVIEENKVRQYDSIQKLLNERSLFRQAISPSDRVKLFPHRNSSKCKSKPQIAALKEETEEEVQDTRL
Procedure, shortened: (§1)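 HEK293 cells reverse-transfected with a CFTR mutant and YFP H148Q/I152L/F47L halide sensor, expressed 24 h at 37° C. Fluorescence quenching followed for 7 s after I⁻ injection; activity expressed as 1−F/F0, with EC50 fitted from 1−F/F0 versus compound concentration.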

CFTR-S549N = biological target: T3, CFTR-S549N (Homo sapiens, UniProt P13569, S549N); test: YFP-halide influx assay for the CFTR-S549N; set-up: % Activation: concentration or dose not given beside the values
T3 construct: expressed in transfected cells
T3 sequence (P13569 whole entry S549N): as the sequence (P13569 whole entry G1349D) above, with S549N, D1349G counted along it
Procedure, shortened: as §1

CFTR-G178R = biological target: T4, CFTR-G178R (Homo sapiens, UniProt P13569, G178R); test: YFP-halide influx assay for the CFTR-G178R
T4 construct: expressed in transfected cells
T4 sequence (P13569 whole entry G178R): as the sequence (P13569 whole entry G1349D) above, with G178R, D1349G counted along it
Procedure, shortened: as §1

CFTR G551D mutant = biological target: T5, CFTR G551D mutant (Homo sapiens, UniProt P13569, G551D); test: YFP-halide influx assay for the CFTR-G551D mutation (HEK293 cells); conditions: forskolin 10.67 μM
T5 construct: expressed in transfected cells; host or cells: HEK293 cells, reverse transfection with plasmids
T5 sequence (P13569 whole entry G551D): as the sequence (P13569 whole entry G1349D) above, with G551D, D1349G counted along it
Procedure, shortened: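 Channel opening read as I⁻-driven quenching of a YFP H148Q/I152L/F47L reporter over 7 s post-injection, expressed as 1−F/F0 and fitted against concentration for EC50. Cells were HEK293 co-transfected at seeding with G551D CFTR plus reporter, then grown 24 h at 37 °C, 5% CO2.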

EC50 (CFTR ΔF508) [nM] | % Activation (CFTR-G1349D) [%] | EC50 (CFTR-G1349D) [nM] | % Activation (CFTR-S549N) [%] | EC50 (CFTR-S549N) [nM] | % Activation (CFTR-G178R) [%] | EC50 (CFTR-G178R) [nM] | % Activation (CFTR G551D mutant) [%] | EC50 (CFTR G551D mutant) [nM] | Structure (SMILES)
63 | 82.7 | 312 | 92.9 | 294 | 79.3 | 230 | 58.4 | 667 | Nc1cc(S(=O)(=O)c2ccc(F)cc2)cnc1C(=O)NC[C@@H](O)C(F)(F)F [Compound 36, 3-amino-5-[(4-fluorophenyl)sulfonyl]-N-[(2R)-3,3,3-trifluoro-2-hydroxypropyl]pyridine-2-carboxamide]
63.2 | 87.4 | 158 | 87.1 | 390 | 93.1 | 80.7 | 82.5 | 350 | Nc1cc(S(=O)(=O)c2ccc(OC(F)(F)F)cc2)cnc1C(=O)NCC(O)C(F)(F)F (stereo not drawn) [Compound 6, 3-amino-N-(3,3,3-trifluoro-2-hydroxypropyl)-5-{[4-(trifluoromethoxy)phenyl]sulfonyl}pyridine-2-carboxamide]
